Source: patent US7276511B2, “Benzylamine derivative” (Zeria Pharmaceutical Co., Ltd., priority 2003, dated 2007)
Structures can show the parent of a compound that is named as a salt. Where two headings read alike, the source gives them in different places.

How the values were obtained:
[1] = molecular target: T1, Cloned Neurokinin Receptor Subtype 2 Human (Homo sapiens, UniProt P21452); assay: NK-2 receptor-binding experiment ([3H]-SR48968, CHO cell membranes); conditions: Table 4; inhibition of [3H]-SR48968 (0.85 nM) binding, pseudo-Hill analysis
T1 construct: purchased Biosignal Packard; host or cells: CHO cells
T1 sequence (P21452 1-398): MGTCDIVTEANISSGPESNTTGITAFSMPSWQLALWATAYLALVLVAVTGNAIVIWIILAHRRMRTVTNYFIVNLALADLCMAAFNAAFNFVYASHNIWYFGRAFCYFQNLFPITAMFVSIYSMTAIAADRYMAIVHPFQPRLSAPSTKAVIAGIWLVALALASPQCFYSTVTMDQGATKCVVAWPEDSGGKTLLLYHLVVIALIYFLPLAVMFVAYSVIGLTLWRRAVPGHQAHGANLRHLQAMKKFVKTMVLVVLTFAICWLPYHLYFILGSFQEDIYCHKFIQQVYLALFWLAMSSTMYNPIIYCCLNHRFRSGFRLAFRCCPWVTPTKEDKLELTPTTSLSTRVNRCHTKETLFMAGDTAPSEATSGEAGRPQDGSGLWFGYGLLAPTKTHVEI
Description: 2. NK-2 Receptor-binding Experiment
Cloned Neurokinin Receptor Subtype 2 Human (CHO cells, Biosignal Packard), [^3H]-SR48968 (Amersham, final concentration 0.85 nM), and a test compound were mixed with 20 mM HEPES buffer, and the mixture was incubated for 50 minutes at 27° C. After completion of incubation, membrane components were collected by means of an automatic filtration apparatus (Brandel) onto a GF/C glass fiber filter (Whatman).
Before use, in order to prevent non-specific binding, the glass fiber filter had been pre-treated with 0.1% polyethylene imine solution for about 4 hours.
The filter employed to collect the membrane components was transferred to a plastic vial containing UltimaGold MV (5 mL), and measured by means of a liquid scintillation counter (Packard, 2000CA) in terms of the radioactivity.
(§1) Percent radioactive ligand-receptor binding inhibition of each test compound was calculated by use of the following equation, and IC50 (nM) was determined through pseudo-Hill analysis.
(§2) Percent inhibition (%)=[1−(C−A)/(B−A)]×100
(§3) A: Radioactivity attributed to non-specific binding
(§4) B: Radioactivity without test compound
(§5) C: Radioactivity with test compound

NK-1 receptor [2] = molecular target: T2, NK-1 receptor (Homo sapiens, UniProt P25103); assay: NK-1 receptor-binding test ([3H]-Substance P, hNK1-CHO cells); parameters: expressed in transfected cells; host or cells: CHO-K1 cells (ATCC: CCL-61), G418-resistant, hNK1-CHO
Description: 1. NK-1 Receptor-binding Test
1) Preparation of Human NK-1 Receptor Expression Cells
FuGene 6 transfection reagent (Boegringer Mannheim) (3 μL) was diluted in an F-12 culture broth (97 μL), and pCR3.1 plasmid to which human NK-1 receptor cDNA had been introduced (Invitrogen) (10 μL) was added thereto. The mixture was mixed and incubated for 15 minutes (transfection reagent). CHO-K1 cells (ATCC: CCL-61) were cultured for 24 hours, and the whole reagent prepared above was added to the cultured CHO-K1 cells ([…]). Subsequently, culture was performed in the presence of G418 (Stratagene), and the resistant cells were employed as cells into which human NK-1 receptor gene was introduced (hNK1-CHO).
2) Subcultivation of hNK1-CHO Cells
The hNK1-CHO cells were treated with trypsin-EDTA and subcultivated in an F-12 culture broth (containing 10% fetal bovine serum, 10 mM HEPES, 100 U/mL, penicillin, 100 μg/mL streptmycin, 400 μg/mL G418) in a 75-cm^2 flask (FALCON). Cells to be employed in the receptor-binding experiment were added to a 24-well plate (IWAKI) at 1×10^5 cells/well, and subcultured for 48 hours at 37° C. under 95% […] and 5% CO2.
3) Receptor-binding Experiment
When the hNK1-CHO cells became subconfluent on the 24-well plate, an F-12 culture broth (containing 10 mM HEPES and 0.1% fetal bovine serum) (450 μL), [^3H]-Substance P (Amersham, final concentration 0.5 nM), and a test compound were added to the cells, and the mixture was incubated for 40 minutes at 37° C. For the measurement of non-specific binding, L703606 (Sigma) was added instead of the test compound. After completion of incubation, the mixture was washed with ice-cooled phosphate buffered saline containing 0.1% fetal bovine serum, and the cells were lysed with 1N NaOH (0.5 mL). The lysate was transfered to a plastic vial containing UltimaGold MV (5 mL), and the radioactivity was determined by means of a liquid liquid scintillation counter (Packard, 2000CA).
as §1, §2, §3, §4, §5
Target sequence in this assay (P25103 whole entry): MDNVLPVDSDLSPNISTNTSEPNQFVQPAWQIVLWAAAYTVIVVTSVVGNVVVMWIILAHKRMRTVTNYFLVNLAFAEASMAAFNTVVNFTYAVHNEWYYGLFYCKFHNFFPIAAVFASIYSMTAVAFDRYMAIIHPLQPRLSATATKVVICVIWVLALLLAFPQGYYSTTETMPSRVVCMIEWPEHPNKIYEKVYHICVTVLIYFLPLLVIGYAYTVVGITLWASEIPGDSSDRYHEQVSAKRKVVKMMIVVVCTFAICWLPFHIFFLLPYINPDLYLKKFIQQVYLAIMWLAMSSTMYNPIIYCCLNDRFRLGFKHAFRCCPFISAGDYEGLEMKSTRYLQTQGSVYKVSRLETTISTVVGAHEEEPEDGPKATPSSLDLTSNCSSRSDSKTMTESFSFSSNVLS

NK-2 receptor = molecular target: T3, NK-2 receptor (Homo sapiens, UniProt P21452); conditions: in vitro for (B); known from Patent Documents 2 and 4; cited from earlier work
T3 sequence (P21452 1-398): T1 sequence (P21452 1-398)

NK-1 receptor [3] = molecular target: T2, NK-1 receptor; conditions: known from Patent Document 4; cited from earlier work
Target sequence in this assay (P25103 whole entry, species assumed): as the sequence (P25103 whole entry) above

[4] = Table 4, inhibition of [3H]-Substance P (0.5 nM) binding to hNK1-CHO cells, pseudo-Hill analysis, read-out: NK-1

Structure (SMILES)	IC50 [1] [nM]	IC50 (NK-1 receptor [2]; [4]) [nM]	also measured
CC(C)C(=O)N(C)C[C@](CCN1CCC2(CC1)NC(=O)Cc1ccccc12)(c1ccc(Cl)c(Cl)c1)N(C)C(=O)NC(c1ccccc1)c1ccccc1 [Compound No. 44, 1-{1-(N-methyl-isobutylamide)-2-(S)-(3,4-dichlorophenyl)-4-[3-oxo-3,4-dihydro-2H-spiro(isoquinoline-1,4′-piperidin)-1′-yl]butan-2-yl}-3-benzhydryl-1-methylureahydrochloride]	2.4	11	–
CN(C[C@](CCN1CCC2(CC1)c1ccccc1C[S@+]2[O-])(c1ccc(Cl)c(Cl)c1)N(C)C(=O)C(c1ccccc1)c1ccccc1)C(=O)CC(F)(F)F [Compound No. 42, N-{2-(S)-(N-methyl-2,2-diphenylacetamide)-2-(3,4-dichlorophenyl)-4-[spiro(benzo(c)thiophene-(2S)-oxido-1(3H),4′-piperidin)-1′-yl]butyl}-3,3,3-trifluoro-N-methylpropanamido hydrochloride]	4	2.1	–
CN(CC(CCN1CCC2(CC1)c1ccccc1C[S@+]2[O-])(c1ccc(Cl)c(Cl)c1)N(C)C(=O)NC(c1ccccc1)c1ccccc1)C(=O)C(F)(F)Cl (stereo partly drawn) [Compound No. 4, N-{2-(3-benzohydryl-1-methylureido)-2-(3,4-dichlorophenyl)-4-{spiro[benzo(c)thiophene-1(3H),4′-piperidine]-(2S)-oxide}-1′-yl-butyl}-2-chloro-2,2-difluoro-N-methyl-acetamide hydrochloride]	1.5	3.4	–
CC(C)C(=O)N(C)CC(CCN1CCC2(CC1)c1ccccc1C[S+]2[O-])(c1ccc(Cl)c(Cl)c1)N(C)C(=O)CC(c1ccccc1)c1ccccc1 [Compound No. 2, N-{2-(3,4-dichlorophenyl)-2-[(3,3-diphenylpropionyl)-methylamino]-4-{spiro[benzo(c)thiophene-1(3H),4′-piperidine]-(2S)-oxide}-1′-yl-butyl}-N-methyl-isobutylamide hydrochloride]	2.1	4.3	–
CN(C[C@@H](CCN1CCC2(CCc3ccccc32)CC1)c1ccc(Cl)c(Cl)c1)C(=O)c1ccccc1 [compound (B), reference compound]	–	–	antagonistic activity against NK-2 receptor (NK-2 receptor): exhibits antagonistic activity only to NK-2 receptor
CCC(=O)N(C)CC(CCN1CCC2(CC1)c1ccccc1C[S+]2[O-])(c1ccc(Cl)c(Cl)c1)N(C)C(=O)CC(c1ccccc1)c1ccccc1 [Compound No. 5, N-{2-(3,4-dichlorophenyl)-2-[(3,3-diphenylpropionyl)-methylamino]-4-{spiro[benzo(c)thiophene-1(3H),4′-piperidine]-(2S)-oxide}-1′-yl-butyl}-N-methyl-propionamide hydrochloride]	1.9	6.3	–
CC(=O)NC1(c2ccccc2)CCN(CCC(CN(C)C(=O)C(F)F)(c2ccc(Cl)c(Cl)c2)N(C)C(=O)NC(c2ccccc2)c2ccccc2)CC1 (centres unmarked) [Compound No. 12, N-[4-(4-Acetylamino-4-phenyl-piperidine-1′-yl)-2-(3-benzhydryl-1-methyl-ureido)-2-(3,4-dichlorophenyl)-butyl]-2,2-difluoro-N-methyl-acetamide hydrochloride]	6.1	11	–
COc1cc(C(=O)N2CCO[C@](CCN3CCCC4(C3)c3ccccc3C[S+]4[O-])(c3ccc(Cl)c(Cl)c3)C2)cc(OC)c1OC (some centres unmarked) [(D)]	–	–	antagonistic activity against NK-2 receptor (NK-2 receptor): excellent antagonistic activity; antagonistic activity against NK-1 receptor (NK-1 receptor [3]): excellent antagonistic activity
CN(CC(CCN1CCC2(CC1)c1ccccc1C[S+]2[O-])(c1ccc(Cl)c(Cl)c1)N(C)C(=O)CC(c1ccccc1)c1ccccc1)C(=O)CC(F)(F)F [Compound No. 1, N-{2-(3,4-dichlorophenyl)-2-[(3,3-diphenylpropionyl)-methylamino]-4-{spiro[benzo(c)thiophene-1(3H),4′-piperidine]-(2S)-oxide}-1′-yl-butyl}-3,3,3-trifluoro-N-methyl-propionamide hydrochloride]	1.6	1.2	–
CN(C[C@](CCN1CCC2(CC1)NC(=O)Cc1ccccc12)(c1ccc(Cl)c(Cl)c1)N(C)C(=O)C(c1ccccc1)c1ccccc1)C(=O)CC(F)(F)F [Compound No. 43, N-{2-(S)-(N-methyl-2,2-diphenylacetamide)-2-(3,4-dichlorophenyl)-4-[3-oxo-3,4-dihydro-2H-spiro(isoquinoline-1,4′-piperidin)-1′-yl]butyl}-3,3,3-trifluoro-N-methylpropanamido hydrochloride]	2.1	7.7	–
CC(C)C(=O)N(C)C[C@](CCN1CCC2(CC1)c1ccccc1C[S@+]2[O-])(c1ccc(Cl)c(Cl)c1)N(C)C(=O)CC(c1ccccc1)c1ccccc1 [Compound No. 45, N-{2-(S)-(N-methyl-3,3-diphenylpropanamido)-2-(3,4-dichlorophenyl)-4-[spiro(benzo(c)thiophene-(2S)-oxido-1(3H),4′-piperidin)-1′-yl]butyl}-N-methyl-isobutylamide hydrobromide]	2.8	4.9	–
CN(C[C@](CCN1CCC2(CC1)NC(=O)Cc1ccccc12)(c1ccc(Cl)c(Cl)c1)N(C)C(=O)NC(c1ccccc1)c1ccccc1)C(=O)C(F)(F)F [Compound No. 46, 1-{1-(2,2,2-trifluoro-N-methylacetamide)-2-(S)-(3,4-dichlorophenyl)-4-[3-oxo-3,4-dihydro-2H-spiro(isoquinoline-1,4′-piperidin)-1′-yl]butan-2-yl}-3-benzhydryl-1-methylurea sulfate]	1.8	10.1	–
CN(C[C@](CCCN1CCC2(CC1)c1ccccc1C[S@+]2[O-])(c1ccc(Cl)c(Cl)c1)N(C)C(=O)Oc1ccc(Cl)cc1)C(=O)CC(F)(F)F [Compound No. 633, 4-chlorophenyl(1-(3,3,3-trifluoro-N-methylpropanamido)-2-(S)-(3,4-dichlorophenyl)-5-[spiro(benzo(c)thiophene-(2S)-oxido-1(3H),4′-piperidin)-1′-yl]pentan-2-yl}methylcarbamate hydrochloride]	–	–	IC50 (NK-1 receptor [2]): 8.3 nM
COc1cc(COCC(CCCN2CCC(C(N)=O)(c3ccccc3)CC2)(c2ccc(Cl)c(Cl)c2)N(C)C(=O)Oc2ccccc2)cc(OC)c1OC (racemic) [Compound No. 17, [4-(4-Carbamoyl-4-phenyl-piperidine-1-yl)-1-(3,4-dichloro-phenyl)-1-(3,4,5-trimethoxy-benzyloxymethyl)-butyl]-methyl-carbamic acid phenyl ester hydrochloride]	–	–	IC50 (NK-1 receptor [2]): 1.5 nM
COc1ccccc1OC(=O)N(C)[C@](CCCN1CCC2(CC1)c1ccccc1C[S@+]2[O-])(CN(C)C(=O)CC(F)(F)F)c1ccc(Cl)c(Cl)c1 [Compound No. 636, 2-methoxyphenyl{1-(3,3,3-trifluoro-N-methylpropanamido)-2-(S)-(3,4-dichlorophenyl)-5-[spiro(benzo(c)thiophene-(2S)-oxido-1(3H),4′-piperidin)-1′-yl]pentan-2-yl}methylcarbamate hydrochloride]	–	–	IC50 (NK-1 receptor [2]): 0.9 nM
